Data taken from patent US4472304A, “(Amido)N-substituted bleomycins, salts thereof and process for preparation thereof” (Nippon Kayaku Kabushiki Kaisha, priority 1981, dated 1984).

Assays:
[1] = test system: Mycobacterium smegmatis ATCC 607; assay: Antimicrobial activity against Mycobacterium smegmatis ATCC 607 (agar plate-cylinder); assay type: cell-based; conditions: standard bleomycin A2 (copper-free) assumed 1,000 mcg potency/mg
Method: (§1) 2. ANT[…] MYC[…] ATCC 607 AND BACILLUS SUBTILIS
(§2) The antimicrobial activity was tested against the captioned test organisms by the method of agar plate-cylinder. The activity was recorded on the assumption that the activity of standard sample of bleomycin A2 (copper-free form) is 1,000 mcg poteney/mg.

pulmonary fibrosis = assay: Pulmonary toxicity (pulmonary fibrosis) in mice; conditions: for Incidence: Number of mice with pulmonary fibrosis (%) / Incidence: Number of mice with pulmonary fibrosis / Grade: Total score of pulmonary fibrosis/total number of samples / Grade: Total score of pulmonary fibrosis/total number of samples (%): ICR mice, 5 mg/kg i.p. once a day for 10 days; for Incidence: Number of mice with pulmonary fibrosis (%) / Incidence: Number of mice with pulmonary fibrosis: 5 weeks observation; for Incidence: Number of mice with pulmonary fibrosis: mice with fibrosis/total; for Grade: Total score of pulmonary fibrosis/total number of samples / Grade: Total score of pulmonary fibrosis/total number of samples (%): points 0, 1, 2, 4, 6; for Ratio (by comparison with "Bleomycin Complex"): versus Bleomycin Complex
Bacillus subtilis = assay: Antimicrobial activity against Bacillus subtilis (agar plate-cylinder); assay type: cell-based; conditions: standard bleomycin A2 (copper-free) assumed 1,000 mcg potency/mg
Method: as §1, §2

| Compound | Antimicrobial potency of Cu-free compound against Mycobacterium smegmatis ATCC 607 [1] | Incidence: Number of mice with pulmonary fibrosis (%) (pulmonary fibrosis) | Incidence: Number of mice with pulmonary fibrosis (pulmonary fibrosis) | Grade: Total score of pulmonary fibrosis/total number of samples (pulmonary fibrosis) | Grade: Total score of pulmonary fibrosis/total number of samples (%) (pulmonary fibrosis) | Ratio (by comparison with "Bleomycin Complex") (pulmonary fibrosis) | Antimicrobial potency of Cu-free compound against Bacillus subtilis (Bacillus subtilis) |
| --- | --- | --- | --- | --- | --- | --- | --- |
| CCCCNCCCN(C)CCCNC(=O)c1csc(-c2csc(CCNC(=O)C(NC(=O)C(C)C(O)C(C)NC(=O)C(NC(=O)c3nc(C(CC(N)=O)NCC(N)C(=O)NC(C)C)nc(N)c3C)C(OC3OC(CO)C(O)C(O)C3OC3OC(CO)C(O)C(OC(N)=O)C3O)c3cnc[nH]3)C(C)O)n2)n1 (stereo not shown) [Compound 37, 3-[N--methyl-N--(3-n-butylaminopropyl)amino]propylamino-(amido)N--[isopropyl]-BLM] | 13210 mcg potency/mg | 33% | 3/9 | 13/27 | 48% | 0.46 | 20048 mcg potency/mg |
| CCCCNCCCN(C)CCCNC(=O)c1csc(-c2csc(CCNC(=O)C(NC(=O)C(C)C(O)C(C)NC(=O)C(NC(=O)c3nc(C(CC(N)=O)NCC(N)C(=O)NCCCN(C)CCCNCCCC)nc(N)c3C)C(OC3OC(CO)C(O)C(O)C3OC3OC(CO)C(O)C(OC(N)=O)C3O)c3cnc[nH]3)C(C)O)n2)n1 (stereo not shown) [Compound 38, 3-[N--methyl-N--(3-n-butylaminopropyl)amino]propylamino-(amido)N--{3-[N--methyl-N--(3-n-butylaminopropyl)amino]-propyl}-BLM] | 5100 mcg potency/mg | 71% | 5/7 | 7/21 | 33% | 0.32 | 6600 mcg potency/mg |
| Cc1c(N)nc(C(CC(N)=O)NCC(N)C(=O)NCCCNC(C)c2ccccc2)nc1C(=O)NC(C(=O)NC(C)C(O)C(C)C(=O)NC(C(=O)NCCc1nc(-c2nc(C(=O)NCCCN(C)CCCNCc3ccc(Cl)cc3)cs2)cs1)C(C)O)C(OC1OC(CO)C(O)C(O)C1OC1OC(CO)C(O)C(OC(N)=O)C1O)c1cnc[nH]1 [Compound 39, 3-{N--methyl-N--[3-(p-chlorobenzyl)aminopropyl]amino}-propylamino-(amino)N--[3-(S)-1'-phenylethyl)aminopropyl]-BLM] | 14880 mcg potency/mg | 20% | 2/9 | 2/27 | 7% | 0.07 | 2590 mcg potency/mg |
| Cc1c(N)nc(C(CC(N)=O)NCC(N)C(=O)NCCCNC(C)c2ccccc2)nc1C(=O)NC(C(=O)NC(C)C(O)C(C)C(=O)NC(C(=O)NCCc1nc(-c2nc(C(=O)NCCCN(C)CCCNCCc3ccc(Cl)cc3)cs2)cs1)C(C)O)C(OC1OC(CO)C(O)C(O)C1OC1OC(CO)C(O)C(OC(N)=O)C1O)c1cnc[nH]1 [Compound 43, 3-{N--methyl-N--[3-(2-(p-chlorophenyl)ethyl)aminopropyl]amino}-propylamino-(amido)N--[3-((S)-1'-phenylethyl)aminopropyl]-BLM] | 15593 mcg potency/mg | 0% | 0/1 | 0/3 | 0% | 0 | 4267 mcg potency/mg |
